Measured values published in paper PMC8344761 (Journal of Enzyme Inhibition and Medicinal Chemistry, 2021).

How the values were obtained:
Assay in all cases: Raf kinase assay (Kinase HotSpot, Reaction Biology Corp.)
Type in all cases: biochemical
B-Raf = B-Raf (Homo sapiens, UniProt P15056)
Protocol: (§1) Compounds were delivered into each Raf reaction, followed ∼20 min later by addition of a mixture of ATP and [γ-^33P-ATP] (specific activity approx. 500 cpm/pmol, concentration as required) to a final concentration of 10 µM. After incubation for 40 min at 25 °C, the reaction was stopped by the addition of a 3% phosphoric acid solution. Then, the reaction was spotted onto a P30 filtermat, and unbound phosphate was removed by washing three times for 5 min in 75 mM phosphoric acid and once in methanol prior to drying and scintillation counting. […] IC50 values and curve fits were obtained using Prism (GraphPad Software, La Jolla, CA).

C-Raf = C-Raf (Homo sapiens, UniProt P04049)
Protocol: as §1

B-Raf (V600E) = B-Raf (V600E) (Homo sapiens, UniProt P15056, V600E)
Protocol: as §1

[1] = fixed concentration 1 μM, mean of two independent experiments, 1 µM

Sequence of C-Raf (P04049 whole entry): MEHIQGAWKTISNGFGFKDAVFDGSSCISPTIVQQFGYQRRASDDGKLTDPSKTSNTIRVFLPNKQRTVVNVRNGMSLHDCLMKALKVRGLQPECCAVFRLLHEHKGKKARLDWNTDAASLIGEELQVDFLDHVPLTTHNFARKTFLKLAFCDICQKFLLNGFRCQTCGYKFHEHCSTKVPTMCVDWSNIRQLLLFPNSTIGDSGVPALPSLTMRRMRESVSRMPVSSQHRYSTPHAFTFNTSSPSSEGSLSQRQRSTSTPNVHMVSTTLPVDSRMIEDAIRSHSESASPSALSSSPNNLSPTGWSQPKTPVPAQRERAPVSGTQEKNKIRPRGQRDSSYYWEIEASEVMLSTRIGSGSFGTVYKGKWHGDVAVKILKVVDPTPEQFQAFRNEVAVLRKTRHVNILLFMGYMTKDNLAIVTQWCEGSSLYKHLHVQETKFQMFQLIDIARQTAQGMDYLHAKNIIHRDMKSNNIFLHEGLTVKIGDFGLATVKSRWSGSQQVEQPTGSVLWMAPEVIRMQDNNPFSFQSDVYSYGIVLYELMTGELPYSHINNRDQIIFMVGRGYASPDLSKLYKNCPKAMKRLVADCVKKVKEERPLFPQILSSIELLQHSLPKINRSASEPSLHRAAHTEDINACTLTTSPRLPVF
Sequence of B-Raf (P15056 whole entry): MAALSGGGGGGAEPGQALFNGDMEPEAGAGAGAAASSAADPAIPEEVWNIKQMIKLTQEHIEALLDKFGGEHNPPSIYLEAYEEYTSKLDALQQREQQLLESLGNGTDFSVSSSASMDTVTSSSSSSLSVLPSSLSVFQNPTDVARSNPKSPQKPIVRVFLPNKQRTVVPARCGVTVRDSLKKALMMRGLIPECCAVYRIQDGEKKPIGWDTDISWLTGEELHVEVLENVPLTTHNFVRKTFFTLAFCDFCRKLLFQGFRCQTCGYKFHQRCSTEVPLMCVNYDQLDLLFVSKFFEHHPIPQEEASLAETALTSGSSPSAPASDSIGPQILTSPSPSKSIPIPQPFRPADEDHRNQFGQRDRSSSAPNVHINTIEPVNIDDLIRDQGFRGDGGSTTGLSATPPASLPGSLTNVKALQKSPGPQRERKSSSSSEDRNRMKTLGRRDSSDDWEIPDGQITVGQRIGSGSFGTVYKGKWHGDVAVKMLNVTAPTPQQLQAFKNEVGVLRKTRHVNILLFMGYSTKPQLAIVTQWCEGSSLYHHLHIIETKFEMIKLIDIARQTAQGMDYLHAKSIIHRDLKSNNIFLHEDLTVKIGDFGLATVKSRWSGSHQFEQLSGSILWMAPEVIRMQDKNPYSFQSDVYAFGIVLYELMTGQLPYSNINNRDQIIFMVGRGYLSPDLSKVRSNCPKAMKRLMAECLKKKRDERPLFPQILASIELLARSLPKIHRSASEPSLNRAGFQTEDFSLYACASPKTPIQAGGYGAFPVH
Sequence of B-Raf (V600E) (P15056 whole entry V600E): as the sequence (P15056 whole entry) above, with V600E counted along it

inhibition at 1 µM (B-Raf; fixed concentration 1 μM, mean of two independent experiments): 11.6%
Inhibition (%) B-Raf (B-Raf; [1]): 12%
IC50 (B-Raf; mean ± SD of two independent experiments, read-out: In vitro Raf kinase inhibition IC50 B-Raf): 5860 nM
Inhibition (%) C-Raf (C-Raf; [1]): 84%
inhibition at 1 µM (C-Raf; fixed concentration 1 μM, mean of two independent experiments, read-out: Inhibition (%) C-Raf): 84.3%
IC50 (C-Raf; mean ± SD of two independent experiments, read-out: In vitro Raf kinase inhibition IC50 C-Raf): 80 ± 8.1 nM
inhibition at 1 µM (B-Raf (V600E); fixed concentration 1 μM, mean of two independent experiments, B-Raf (V599E)): 56.1%
IC50 (B-Raf (V600E); mean ± SD of two independent experiments, read-out: In vitro Raf kinase inhibition IC50 B-Raf(V600E)): 650 ± 2.3 nM
Compound: CNC(=O)c1cc(Oc2c(C)nc(NC(=O)Nc3ccc(Cl)c(C(F)(F)F)c3)c(C)c2C)ccn1 [Compound 4, 4-((6–(3-(4-Chloro-3-(trifluoromethyl)phenyl)ureido)-2,4,5-trimethylpyridin-3-yl)oxy)-N-methylpicolinamide]
